Tested on: T1, A. flavipes L-methionine γ-lyase (MGL), free MGL
T1 construct: native intracellular enzyme purified from A. flavipes mycelium (acetone, Sephadex G100, DEAE-Sepharose); 48 kDa subunit; PLP enzyme; free (not cyclodextrin-conjugated)
Assay: released thiol/ammonia assay (DTNB), Lineweaver-Burk
Format: biochemical, Aspergillus flavipes
Details: free enzyme; standard assay Tris-HCl pH 7.8, 10 μM PLP, 37 °C
Text: released thiol/ammonia assay (DTNB), Lineweaver-Burk on A. flavipes L-methionine γ-lyase (MGL), free MGL

Row | SMILES | Km [mM]
1 | CSCC[C@H](N)C(=O)O [L-methionine] | 7.2
2 | N[C@@H](CS)C(=O)O [L-cysteine] | 9.5
3 | NC(CCS)C(=O)O (racemic) [DL-homocysteine] | 12.2
